Reference: ChEMBL document CHEMBL1127438, “Substituted (S)-phenylpiperidines and rigid congeners as preferential dopamine autoreceptor antagonists: synthesis and structure-activity relationships” (J Med Chem, 1994)

What was measured:
D(2) dopamine receptor [1] = target: T1, D(2) dopamine receptor (Homo sapiens, UniProt P14416); test: biochemical
Description: Affinity against recombinant dopamine receptor (DA) D2 expressed in CHO-K1 cells, using [3H]-spiperone as radioligand

Rattus norvegicus [2] = test: Evaluated for DOPA accumulation in nonhabituated rats at 100 umol/kg of subcuteneous dose in rat striatum; type: functional
D(2) dopamine receptor [3] = target: T2, D(2) dopamine receptor (Rattus norvegicus, UniProt P61169); test: Tested for affinity against striatal dopamine autoreceptor (DA) D2 receptors using [3H]spiperone as radioligand in rats.
T2 sequence (P61169 whole entry): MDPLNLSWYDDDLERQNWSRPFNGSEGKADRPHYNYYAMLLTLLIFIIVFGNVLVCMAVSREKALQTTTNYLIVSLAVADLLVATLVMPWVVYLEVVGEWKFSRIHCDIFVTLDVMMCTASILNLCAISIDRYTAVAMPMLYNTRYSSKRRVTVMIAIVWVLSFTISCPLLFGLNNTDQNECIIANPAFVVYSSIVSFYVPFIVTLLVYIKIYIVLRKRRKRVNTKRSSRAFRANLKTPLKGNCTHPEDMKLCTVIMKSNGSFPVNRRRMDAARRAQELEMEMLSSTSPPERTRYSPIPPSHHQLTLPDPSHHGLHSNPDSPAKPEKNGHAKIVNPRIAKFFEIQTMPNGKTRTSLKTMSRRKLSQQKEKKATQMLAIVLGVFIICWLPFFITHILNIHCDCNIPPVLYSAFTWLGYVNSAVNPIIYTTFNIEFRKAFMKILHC

Rattus norvegicus [4] = test: Evaluated for biochemical levels of DOPAC in nonpretreated habituated rats for subcuteneous dose of 100 micro mol/kg in rat striatum; type: functional
D(3) dopamine receptor [5] = target: T3, D(3) dopamine receptor (Homo sapiens, UniProt P35462); test: Tested for in vitro binding affinity against cloned mammalian dopamine autoreceptor (DA) receptors expressed in CHO-K1 cells [3H]-spiperone as radioligand; type: cell-based
T3 sequence (P35462 whole entry): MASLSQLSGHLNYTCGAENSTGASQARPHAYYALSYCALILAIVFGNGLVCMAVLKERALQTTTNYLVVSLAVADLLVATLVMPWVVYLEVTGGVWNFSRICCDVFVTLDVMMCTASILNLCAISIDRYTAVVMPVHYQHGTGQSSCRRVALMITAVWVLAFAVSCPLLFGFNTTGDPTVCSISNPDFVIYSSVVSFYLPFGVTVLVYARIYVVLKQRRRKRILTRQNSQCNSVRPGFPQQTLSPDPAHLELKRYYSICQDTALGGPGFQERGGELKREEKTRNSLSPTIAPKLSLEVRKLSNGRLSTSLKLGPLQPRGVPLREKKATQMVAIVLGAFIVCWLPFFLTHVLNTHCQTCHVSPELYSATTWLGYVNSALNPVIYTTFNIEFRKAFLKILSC

Dopamine receptor = test: Tested for in vitro binding affinity against cloned mammalian dopamine autoreceptor (DA) receptors expressed in CHO-K1 cells using [3H]U-86170 as radioligand; type: cell-based
Rattus norvegicus [6] = test: Evaluated for locomotor activity in nonpretreated habituated rats in 100 umol/kg of subcuteneous dose; type: functional; design: unit not given here
D(2) dopamine receptor [7] = target: T2, D(2) dopamine receptor
Description: Affinity against striatal dopamine D2 receptors using [3H]spiperone as radioligand in rats.

D(3) dopamine receptor [8] = target: T3, D(3) dopamine receptor; test: Tested for in vitro binding affinity against cloned mammalian dopamine D3 receptor, expressed in CHO-K1 cells, using [3H]spiperone as radioligand; type: cell-based
D(2) dopamine receptor [9] = target: T1, D(2) dopamine receptor; test: biochemical; remark: listed apart in the source
Description: In vitro binding affinity against cloned mammalian dopamine D2 autoreceptor, expressed in CHO-K1 cells, using [3H]U-86170 as radioligand

Rattus norvegicus [10] = test: Effect of (60 min after administration of 200 (uM/kg) subcuteneous dose on DA release in brain dialysis model of rat striatum; Values expressed as percent of saline controls; type: functional
Rattus norvegicus [11] = test: Tested in vivo for its ability to displace DA receptor agonist (Di-Pr-5,6-ADTN) from rat striatal binding sites at 0.25 uM/Kg sc. dose (after subtraction of cerebellum levels); type: functional
Rattus norvegicus [12] = test: Evaluated biochemically in nonpretreated habituated rats for (100 uM/kg) subcuteneous dose, Value expressed as locomotor activity (LMA); type: functional
Rattus norvegicus [13] = organism: Rattus norvegicus; test: Tested in vio for concomitant ability to antagonize the locomotor activity of rat induced by Di-Pr-5,6-ADTN, Value expressed as locomotor activity (LMA), % of control; type: functional; design: scale not given: the % may be the effect or the level left
Rattus norvegicus [14] = test: Evaluated for DOPAC level in nonpretreated habituated rats after subcuteneous dose of 100 micro mol/kg in rat striatum; type: functional
Rattus norvegicus [15] = test: Evaluated biochemically in reserpine-pretreated habituated rats for (100 umol/kg) subcuteneous dose in rat striatum (DOPAacc), Value expressed as counts/30 min; type: functional
Rattus norvegicus [16] = test: Evaluated biochemically in nonhabituated rats for (100 umol/kg) subcuteneous dose, Value expressed as locomotor activity (LMA); type: functional
Rattus norvegicus [17] = test: Evaluated for DOPA accumulation (DOPAacc) level in nonhabituated rats after subcuteneous dose (100 uM/kg) in rat striatum; type: functional
Rattus norvegicus [18] = test: Evaluated biochemically in reserpine-pretreated habituated rats for (100 umol/kg) subcuteneous dose, Value expressed as locomotor activity (LMA); type: functional

T1 sequence (P14416 whole entry): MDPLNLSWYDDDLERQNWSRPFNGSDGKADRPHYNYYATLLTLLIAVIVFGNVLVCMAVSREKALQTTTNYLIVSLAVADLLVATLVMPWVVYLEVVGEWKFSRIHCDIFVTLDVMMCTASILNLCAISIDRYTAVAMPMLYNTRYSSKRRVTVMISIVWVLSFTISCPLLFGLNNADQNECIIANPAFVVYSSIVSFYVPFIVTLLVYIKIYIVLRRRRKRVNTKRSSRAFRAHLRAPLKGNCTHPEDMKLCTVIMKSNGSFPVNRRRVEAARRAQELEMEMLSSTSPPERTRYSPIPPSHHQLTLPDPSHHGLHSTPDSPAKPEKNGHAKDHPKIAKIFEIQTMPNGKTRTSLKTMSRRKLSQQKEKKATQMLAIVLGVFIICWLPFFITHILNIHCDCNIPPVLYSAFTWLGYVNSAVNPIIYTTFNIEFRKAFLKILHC

SMILES | Ki (D(2) dopamine receptor [1]) | Ki (D(2) dopamine receptor [7]) | Ki (D(3) dopamine receptor [8]) | Ki (D(2) dopamine receptor [9]) | Control (Rattus norvegicus [12]) | Activity (Rattus norvegicus [14]) | further results
CCCN1CCC[C@@H](c2ccc(OS(=O)(=O)C(F)(F)F)cc2)C1 | > 217 nM | – | – | – | – | – | Activity (Rattus norvegicus [2]): 495%; Ki (D(2) dopamine receptor [3]): 11800 nM; Activity (Rattus norvegicus [4]): 85%; Ki (D(3) dopamine receptor [5]): 1140 nM; Ki (Dopamine receptor): 1736 nM
CCCN1CCCC2c3cccc(OS(=O)(=O)C(F)(F)F)c3CCC21 (stereo in doubt; 45) | – | – | – | – | – | – | LMA (Rattus norvegicus [6]): 266; Ki (D(2) dopamine receptor [3]): > 453 nM; Activity (Rattus norvegicus [4]): 94%; Ki (D(3) dopamine receptor [5]): 587 nM; Ki (Dopamine receptor): 744 nM
CCCN1CCC[C@@H](c2cccc(C)c2)C1 | > 217 nM | – | – | – | – | – | Ki (D(2) dopamine receptor [3]): 930 nM; Ki (D(3) dopamine receptor [5]): 573 nM; Ki (Dopamine receptor): 430 nM
CCC(C)N1CCC[C@@H](c2cccc(C#N)c2)C1 (stereo partly specified) | 98 nM | 1050 nM | 105 nM | 187 nM | 346% | 267% | Activity (Rattus norvegicus [10]): 256%; Control (Rattus norvegicus [11]): 59%; Control (Rattus norvegicus [13]): 56%
C=CCN1CCC2c3cccc(C(N)=O)c3CCC21 (stereo unspecified) | > 217 nM | > 172 nM | > 1500 nM | > 1500 nM | – | – | –
CCCN1CCC[C@@H](c2cccc(NS(=O)(=O)C(F)(F)F)c2)C1 | > 217 nM | – | > 2000 nM | – | 305% | 91% | –
CN1CCC[C@@H](c2cccc(OS(=O)(=O)C(F)(F)F)c2)C1 | > 217 nM | – | – | – | – | – | Ki (D(2) dopamine receptor [3]): 11800 nM
CCCN1CCC[C@@H](c2cccc(C(N)=O)c2)C1 | > 217 nM | > 15000 nM | > 1280 nM | > 1850 nM | 203% | 114% | Activity (Rattus norvegicus [15]): 97%
C=CCN1CC[C@H]2c3cccc(OC)c3CC[C@H]21 | – | – | – | – | 182% | 314% | –
C=CCN1CCC2c3cccc(C#N)c3CCC21 (stereo unspecified) | – | > 172 nM | > 455 nM | 984 nM | 292% | 172% | –
CC(C)N1CCC[C@@H](c2cccc(C#N)c2)C1 | > 217 nM | 717 nM | 268 nM | 106 nM | 366% | – | Locomotor activity (% of control) (Rattus norvegicus [16]): 102%; Activity (Rattus norvegicus [17]): 301%
CCCN1CCC[C@@H](c2cccc(O)c2)C1 [PRECLAMOL] | – | – | – | – | 119% | 203% | Activity (Rattus norvegicus [10]): 190; Locomotor activity (% of control) (Rattus norvegicus [16]): 40%; Activity (Rattus norvegicus [17]): 141; Control (Rattus norvegicus [18]): 12%; Activity (Rattus norvegicus [15]): 25%
N#Cc1cccc([C@@H]2CCCNC2)c1 | > 217 nM | – | 631 nM | 314 nM | 575% | 167% | Locomotor activity (% of control) (Rattus norvegicus [16]): 193%; Activity (Rattus norvegicus [17]): 271%
CN1CCC[C@@H](c2cccc(C#N)c2)C1 | > 217 nM | 8330 nM | 1760 nM | 1040 nM | – | 174% | Locomotor activity (% of control) (Rattus norvegicus [16]): 79%; Activity (Rattus norvegicus [17]): 215%
C#CCN1CCC[C@@H](c2cccc(C#N)c2)C1 | > 217 nM | > 15000 nM | > 1360 nM | 1180 nM | 297% | 146% | –
N#Cc1cccc([C@@H]2CCCN(CCCc3ccccc3)C2)c1 | 60 nM | 80 nM | 36 nM | 29 nM | 484% | 280% | –
CCCN1CCC[C@@H](c2ccc(OS(=O)(=O)C(F)(F)F)c(OS(=O)(=O)C(F)(F)F)c2)C1 | > 217 nM | – | – | – | – | – | LMA (Rattus norvegicus [6]): 36; Activity (Rattus norvegicus [4]): 96%; Ki (D(3) dopamine receptor [5]): 338 nM; Ki (Dopamine receptor): 1100 nM
CCCN1CCC[C@@H](c2cccc(S(=O)(=O)N(C)C)c2)C1 | – | 3390 nM | 170 nM | – | 548% | 355% | Activity (Rattus norvegicus [10]): 220%
CCCN1CCC[C@@H](c2ccccc2OS(=O)(=O)C(F)(F)F)C1 | > 217 nM | – | – | – | – | – | Activity (Rattus norvegicus [2]): 102%; Activity (Rattus norvegicus [4]): 83%; Ki (D(3) dopamine receptor [5]): 3110 nM; Ki (Dopamine receptor): 315 nM
CCCN1CCC[C@@H](c2cccc(C(=O)OC)c2)C1 | > 217 nM | 2170 nM | > 1280 nM | > 1850 nM | 297% | 140% | –
N#Cc1cccc([C@@H]2CCCN(CCc3ccccc3)C2)c1 | > 217 nM | 105 nM | 59 nM | 22 nM | 510% | – | Locomotor activity (% of control) (Rattus norvegicus [16]): 120%; Activity (Rattus norvegicus [17]): 176%
CCCN1CCC2c3cccc(OS(=O)(=O)C(F)(F)F)c3CCC21 (stereo unspecified) | > 217 nM | – | – | – | – | – | LMA (Rattus norvegicus [6]): 687; Ki (D(2) dopamine receptor [3]): 82 nM; Activity (Rattus norvegicus [4]): 223%; Ki (D(3) dopamine receptor [5]): 61 nM; Ki (Dopamine receptor): 89 nM
CCCN[C@@H]1CCc2c(OC)cccc2[C@@H]1C | – | – | – | – | 354% | 346% | –
N#Cc1cccc([C@@H]2CCCN(CC3CC3)C2)c1 | > 217 nM | – | 522 nM | 519 nM | – | – | Locomotor activity (% of control) (Rattus norvegicus [16]): 191%
CCCCN1CCC[C@@H](c2cccc(C#N)c2)C1 | > 217 nM | 617 nM | – | – | 1382% | 257% | Control (Rattus norvegicus [18]): 12%; Activity (Rattus norvegicus [15]): 71%
C=CCN1CC[C@@H]2c3cccc(OS(=O)(=O)C(F)(F)F)c3CC[C@@H]21 (stereo in doubt; 49) | > 217 nM | – | – | – | – | – | LMA (Rattus norvegicus [6]): 116; Ki (D(2) dopamine receptor [3]): > 172 nM; Activity (Rattus norvegicus [4]): 108%; Ki (D(3) dopamine receptor [5]): 173 nM; Ki (Dopamine receptor): 353 nM
CCCN1CCC[C@@H](c2cccc(CC#N)c2)C1 | > 217 nM | 1230 nM | 509 nM | 69 nM | 887% | 302% | Locomotor activity (% of control) (Rattus norvegicus [16]): 147%; Activity (Rattus norvegicus [17]): 207%; Control (Rattus norvegicus [18]): 16%; Activity (Rattus norvegicus [15]): 57%
CCN1CCC[C@@H](c2cccc(C#N)c2)C1 | > 217 nM | 2330 nM | 514 nM | 235 nM | 351% | 264% | Activity (Rattus norvegicus [10]): 212%; Locomotor activity (% of control) (Rattus norvegicus [16]): 113%; Activity (Rattus norvegicus [17]): 318%
CCCN1CCC[C@@H](c2cccc(-c3ccsc3)c2)C1 | > 217 nM | 760 nM | 78 nM | 134 nM | 229% | 88% | Activity (Rattus norvegicus [10]): 106%
